Laboratory results as given in patent US20110015413A1, “PROCESS FOR PREPARING CRYSTALLINE CALCIUM MUPIROCIN DIHYDRATE” (priority 2008, published 2011).

How the values were obtained:
[1] = Morphology and particle size by thermal field scanning electron microscopy (FE SEM); format: physicochemical; conditions: fused primary particles formed during crystallisation, FIG. 2
Description: The morphology of crystalline mupirocin calcium dihydrate produced according to the procedure of Example 2 was examined by thermal field scanning electron microscopy (FE SEM). An FE SEM microscope, model JSM-7000F, manufactured by Jeol Ltd., Japan, was used in the inspection of samples. The FE SEM microscope was coupled with an EDS/INCA 350 (energy dispersive X-ray analyzer) manufactured by Oxford Instruments Ltd. The samples inspected by FE SEM were not coated with a conductive layer. […] Calcium mupirocin dihydrate crystallize in a columnar particle shape having a mean particle size from about 100 to about 700 nm. During the crystallisation process primary particles, i.e., crystals, are fused to form agglomerates (FIG. 2) having a mean particle size of about 10 μm. During the drying process, the agglomerates adhere to each other, forming aggregates having a mean particle size from about 30 μm to about 400 μm.

[2] = amorphous form, quoted description; cited from earlier work
[3] = amorphous form, quoted description; cited from earlier work; remark: listed apart in the source

Compound | mean particle size of agglomerates [1] | water solubility [2] | thermal stability [3]
C/C(=C\C(=O)OCCCCCCCCC(=O)O)C[C@@H]1OC[C@H](C[C@@H]2O[C@H]2[C@@H](C)[C@H](C)O)[C@@H](O)[C@H]1O [Calcium mupirocin dihydrate, mupirocin calcium dihydrate] | about 10 μm |  | 
C/C(=C\C(=O)OCCCCCCCCC(=O)[O-])C[C@@H]1OC[C@H](C[C@@H]2O[C@H]2[C@@H](C)[C@H](C)O)[C@@H](O)[C@H]1O.C/C(=C\C(=O)OCCCCCCCCC(=O)[O-])C[C@@H]1OC[C@H](C[C@@H]2O[C@H]2[C@@H](C)[C@H](C)O)[C@@H](O)[C@H]1O.O.O.[Ca+2] [amorphous calcium salt of mupirocin] |  | sparingly water soluble | poor thermal stability
